Data on 2 compounds can be found in ChEMBL document CHEMBL5096210, “Discovery of Betulinic Acid Derivatives as Potent Intestinal Farnesoid X Receptor Antagonists to Ameliorate Nonalcoholic Steatohepatitis” (J Med Chem, 2022).

Calls of active or inactive are those of the source. No cut-off for these calls is given here.

Data set [1] addresses T1, G-protein coupled bile acid receptor 1 (Homo sapiens, UniProt Q8TDU6).
T1 sequence (Q8TDU6 whole entry): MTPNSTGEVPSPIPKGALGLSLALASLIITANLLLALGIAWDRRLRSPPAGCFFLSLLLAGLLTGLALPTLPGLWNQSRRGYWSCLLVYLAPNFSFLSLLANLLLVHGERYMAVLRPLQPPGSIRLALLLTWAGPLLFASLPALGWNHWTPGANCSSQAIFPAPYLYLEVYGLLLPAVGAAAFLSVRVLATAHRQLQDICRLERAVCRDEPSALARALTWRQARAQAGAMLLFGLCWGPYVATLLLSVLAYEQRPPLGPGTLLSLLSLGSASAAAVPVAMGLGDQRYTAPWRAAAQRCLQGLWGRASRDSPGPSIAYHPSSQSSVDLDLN
As to the kind of experiment: Agonist activity against TGR5 (unknown origin). Format: functional.

A short description of data set [2]: Cytotoxicity against HEK293T cells cotransfected with pCMV-Script-hFXR/pGL4.11-hSHP-Luciferase incubated for 24 hrs in presence of GW4064 by celltiter-blue cell viability assay. Type of data set: toxicity, cell-based, HEK-293T. The settings on record: human.
The target in another data set is T2, Bile acid receptor (Homo sapiens, UniProt Q96RI1).
T2 sequence (Q96RI1 whole entry): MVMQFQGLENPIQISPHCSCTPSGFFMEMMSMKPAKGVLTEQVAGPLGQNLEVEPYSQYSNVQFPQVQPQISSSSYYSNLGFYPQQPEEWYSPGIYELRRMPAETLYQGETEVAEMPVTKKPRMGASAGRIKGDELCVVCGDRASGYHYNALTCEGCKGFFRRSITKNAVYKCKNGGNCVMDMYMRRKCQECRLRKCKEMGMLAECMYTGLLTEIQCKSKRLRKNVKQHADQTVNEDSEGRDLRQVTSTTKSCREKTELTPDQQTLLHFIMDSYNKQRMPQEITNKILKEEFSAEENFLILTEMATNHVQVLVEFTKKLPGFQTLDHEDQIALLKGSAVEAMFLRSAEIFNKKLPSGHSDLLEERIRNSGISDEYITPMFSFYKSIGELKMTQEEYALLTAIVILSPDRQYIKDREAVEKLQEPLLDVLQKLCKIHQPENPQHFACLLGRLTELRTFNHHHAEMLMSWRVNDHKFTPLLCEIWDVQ
As to the kind of experiment: Antagonist activity at FXR (unknown origin) expressed in HEK293T cells cotransfected with pCMV-Script-hFXR/pGL4.11-hSHP-Luciferase incubated for 24 hrs in presence of GW4064 by Steady-glo luciferase assay. Type of data set: cell-based.

Data set [3] concerns the target T3, Bile acid receptor (Homo sapiens) (UniProt Q96RI1).
T3 sequence (whole entry): T2 sequence (Q96RI1 whole entry)
As to the kind of experiment: Agonist activity against FXR (unknown origin) at upto 100 uM. The settings on record: filed as agonist.

Data set [4] relates to Mus musculus. In words: Anti-NASH activity in GAN diet-induced […] mouse assessed as reduction of ceramide level in serum administered orally for 12 weeks. Type of data set: functional, organism-based. The settings on record: route po.
The target of data set [5] is T4, Bile acid receptor (Mus musculus) (UniProt Q60641).
T4 sequence (whole entry): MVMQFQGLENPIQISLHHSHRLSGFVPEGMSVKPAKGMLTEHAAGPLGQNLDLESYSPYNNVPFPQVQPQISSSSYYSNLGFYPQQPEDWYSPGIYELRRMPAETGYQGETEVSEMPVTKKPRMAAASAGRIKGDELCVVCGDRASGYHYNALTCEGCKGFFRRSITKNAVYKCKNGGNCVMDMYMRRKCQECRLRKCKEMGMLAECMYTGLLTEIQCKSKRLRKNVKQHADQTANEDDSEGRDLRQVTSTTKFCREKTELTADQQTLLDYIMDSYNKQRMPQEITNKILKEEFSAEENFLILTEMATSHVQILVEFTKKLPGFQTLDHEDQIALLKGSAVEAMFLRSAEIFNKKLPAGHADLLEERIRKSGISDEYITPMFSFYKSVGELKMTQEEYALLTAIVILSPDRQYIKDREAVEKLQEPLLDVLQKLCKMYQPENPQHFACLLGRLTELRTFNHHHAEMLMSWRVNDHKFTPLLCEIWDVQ
As to the kind of experiment: In vivo antagonist activity against FXR in microbeta depleted mouse assessed as reduction in taurocholic acid induced Shp mRNA expression in ileum at 10 mg/kg, po incubated for 2 to 48 hrs. Format: functional, organism-based. To be noted: time 2-48 hrs.

The species named for data set [6] is Mus musculus. In words: Anti-NASH activity in GAN diet-induced […] mouse assessed as bile acid level in gall bladder. Type of data set: functional, organism-based.
The test system of data set [7] is Mus musculus. In words: Anti-NASH activity in GAN diet-induced […] mouse assessed as reduction of sphinogo-myelin level in serum administered orally for 12 weeks. The settings on record: route po. Format: functional, organism-based.
The species entered for data set [8] is Mus musculus. As to the kind of experiment: Anti-NASH activity in GAN diet-induced […] mouse assessed as reduction of bile acid pool size in ileum. Format: functional, organism-based.
Data set [9] is filed under the species Mus musculus. In words: Anti-NASH activity in GAN diet-induced […] mouse assessed as increase in hepatic bile acid synthesis. Type of data set: functional, organism-based.
The test system of data set [10] is Mus musculus. In words: Anti-NASH activity in GAN diet-induced […] mouse assessed as reduction of dihydroceramide level in serum administered orally for 12 weeks. Format: functional, organism-based. The settings on record: route po.
Data set [11] concerns Mus musculus. As to the kind of experiment: Anti-NASH activity in GAN diet-induced […] mouse assessed as reduction of glycosyl-ceramide level in serum administered orally for 12 weeks. Format: functional, organism-based. The settings on record: route po.
The species entered for data set [12] is Mus musculus. In words: Anti-NASH activity in GAN diet-induced […] mouse assessed as reduction in bile acid loss in cecum content. Type of data set: functional, organism-based.
The target of data set [13] is T4, Bile acid receptor (Mus musculus). In words: In vivo antagonist activity against FXR in microbeta depleted mouse assessed as reduction in taurocholic acid induced Fgf15 mRNA expression in ileum at 10 mg/kg, po incubated for 2 to 48 hrs. To be noted: time 2-48 hrs. Type of data set: functional, organism-based.
For data set [14], the species on record is Mus musculus. As to the kind of experiment: Anti-NASH activity in GAN diet-induced […] mouse assessed as bile acid level in serum. Type of data set: functional, organism-based.
The target of data set [15] is T4, Bile acid receptor (Mus musculus). As to the kind of experiment: In vivo antagonist activity against FXR in microbeta depleted mouse assessed as reduction in taurocholic acid induced FXR mRNA expression in hepatic signaling at 10 mg/kg, po incubated for 2 to 48 hrs. Format: functional, organism-based. The settings on record: time 2-48 hrs.

In data set [1], `CC(C)[C@@H]1CC[C@]2(C(=O)NCC(=O)O)CC[C@]3(C)[C@H](CC[C@@H]4[C@@]5(C)CC[C@@H](O)C(C)(C)[C@@H]5CC[C@]43C)[C@@H]12` had a half-maximal effective concentration (EC50) greater than 100 µM. Also, the IC50 at 24 h in data set [2] is greater than 100 µM. Also, the IC50 on Bile acid receptor stood at 74 µM. In [3], the outcome was Active.
On to `C[C@H](CCC(=O)NCC(=O)O)[C@H]1CC[C@H]2[C@@H]3[C@@H](O)C[C@@H]4C[C@H](O)CC[C@]4(C)[C@H]3CC[C@]12C` [GLYCOURSODEOXYCHOLIC ACID], for which the outcome (in the data set on Mus musculus [4]; in data set [5]; in the data set filed under Mus musculus [6]; in the data set on Mus musculus [7]; in the data set listed under Mus musculus [8]; in the data set listed under Mus musculus [9]) was Active. For the same compound, the result (in the data set on Mus musculus [10]; in the data set on Mus musculus [11]; in the data set filed under Mus musculus [12]; in data set [13]; in the data set filed under Mus musculus [14]; in data set [15]) was Active. The IC50 at 24 h in [2] is greater than 100 µM.
